Assay results from article PMC3073714 (Chemistry and physics of lipids, 2010).

Target: T1, DNA topoisomerase IB (LdTopIB) (Leishmania donovani, UniProt A0A3Q8IHS4+Q8WQM6)
T1 sequence (A0A3Q8IHS4 1-635): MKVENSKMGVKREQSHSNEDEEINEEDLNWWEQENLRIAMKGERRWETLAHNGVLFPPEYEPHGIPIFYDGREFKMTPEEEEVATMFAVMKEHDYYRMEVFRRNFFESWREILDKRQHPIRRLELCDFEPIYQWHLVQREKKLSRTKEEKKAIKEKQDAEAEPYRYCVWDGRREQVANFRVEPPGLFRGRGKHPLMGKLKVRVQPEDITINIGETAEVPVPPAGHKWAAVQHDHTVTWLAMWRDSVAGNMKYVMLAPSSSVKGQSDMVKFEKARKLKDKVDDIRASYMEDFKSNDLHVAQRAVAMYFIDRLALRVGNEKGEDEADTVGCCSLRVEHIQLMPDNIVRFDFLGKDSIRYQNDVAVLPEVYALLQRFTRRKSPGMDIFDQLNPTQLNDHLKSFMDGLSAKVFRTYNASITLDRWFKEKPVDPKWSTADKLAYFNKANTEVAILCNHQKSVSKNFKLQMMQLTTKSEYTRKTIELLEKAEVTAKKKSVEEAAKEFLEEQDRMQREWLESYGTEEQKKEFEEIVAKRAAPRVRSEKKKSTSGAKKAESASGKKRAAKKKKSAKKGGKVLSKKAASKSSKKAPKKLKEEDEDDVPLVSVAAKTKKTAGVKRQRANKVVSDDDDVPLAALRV
T1 sequence (Q8WQM6 1-262): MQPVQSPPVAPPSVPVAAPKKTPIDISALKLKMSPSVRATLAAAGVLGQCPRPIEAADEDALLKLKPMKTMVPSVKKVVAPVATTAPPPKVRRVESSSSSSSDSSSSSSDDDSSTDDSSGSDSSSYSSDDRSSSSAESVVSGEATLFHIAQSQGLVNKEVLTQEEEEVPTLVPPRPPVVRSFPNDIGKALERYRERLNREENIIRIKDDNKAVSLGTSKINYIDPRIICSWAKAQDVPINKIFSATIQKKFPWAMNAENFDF
Test: supercoiled plasmid DNA relaxation assay with purified recombinant enzyme
Type: biochemical

IC50: 62.3 ± 0.7 µM
Compound: CC(C)CCC/C=C\CCCCCCCCCC(=O)O [compound 1, (Z)-16-methyl-11-heptadecenoic acid]
